Source: patent publication US20230278983A1, “INDOLE DERIVATIVES AND USES THEREOF FOR TREATING A CANCER” (Universite Claude Bernard Lyon 1, priority 2020, published 2023)
Read-outs that look alike come from different tables or passages of the source.

Biological target: CK2 (Homo sapiens (Human), UniProt P68400)
Experiment: Radiometric CK2 kinase assay
Type: biochemical
Settings: for inhibition at 1 µM: compound at 1 μM
[1] = inhibition of CK2 activity, ATP 10 μM

Chain of CK2 (P68400 whole entry): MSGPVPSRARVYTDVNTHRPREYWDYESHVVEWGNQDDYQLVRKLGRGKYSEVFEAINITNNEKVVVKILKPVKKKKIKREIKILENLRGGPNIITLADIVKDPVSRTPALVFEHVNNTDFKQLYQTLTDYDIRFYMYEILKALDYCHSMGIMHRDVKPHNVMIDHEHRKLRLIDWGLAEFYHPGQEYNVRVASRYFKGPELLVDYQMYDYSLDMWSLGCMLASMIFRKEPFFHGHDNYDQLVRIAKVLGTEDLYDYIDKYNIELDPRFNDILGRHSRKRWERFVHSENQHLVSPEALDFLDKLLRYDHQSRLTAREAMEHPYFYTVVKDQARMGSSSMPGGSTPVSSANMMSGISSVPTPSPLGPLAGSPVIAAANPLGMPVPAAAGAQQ

Q: For `CC(C)COC(=O)c1[nH]c2ccc(F)cc2c1-c1cn(CC2CCN(CCNS(=O)(=O)c3ccc(OC(C)C)cc3)CC2)nn1` [AB917, isobutyl 5-fluoro-3-(1-((1-(2-((4-isopropoxyphenyl)sulfonamido)ethyl)piperidin-4-yl)methyl)-1H-1,2,3-triazol-4-yl)-1H-indole-2-carboxylate], which IC50 is on record?
A: 600 nM

Q: With `CC(=O)c1[nH]c2ccc(F)cc2c1-c1cn(CC2CCN(CCNS(=O)(=O)c3ccc(CC(C)C)cc3)CC2)nn1` [AB1135, N-(2-(4-((4-(2-acetyl-5-fluoro-1H-indol-3-yl)-1H-1,2,3-triazol-1-yl)methyl)piperidin-1-yl)ethyl)-4-isobutylbenzenesulfonamide] as the compound, how does the IC50 read?
A: 48 nM

Q: How did the inhibition at 1 µM (ATP 10 μM) turn out when `COCc1ccccc1-c1ccc(CN2CCC(Cn3cc(-c4c(C(=O)OCC(C)C)[nH]c5ccc(F)cc45)nn3)CC2)cc1Cl` [AB680, Isobutyl 3-(1-((1-((2-chloro-2′-(methoxymethyl)-[1,1′-biphenyl]-4-yl)methyl)piperidin-4-yl)methyl)-1H-1,2,3-triazol-4-yl)-5-fluoro-1H-indole-2-carboxylate] was run?
A: 11%

Q: For `CC(C)COC(=O)c1[nH]c2ccc(F)cc2c1-c1cn(CC2CCN(CCNS(=O)(=O)Cc3cccc(Cl)c3)CC2)nn1` [AB937, isobutyl 3-(1-((1-(2-(((3-chlorophenyl)methyl)sulfonamido)ethyl)piperidin-4-yl)methyl)-1H-1,2,3-triazol-4-yl)-5-fluoro-1H-indole-2-carboxylate], which IC50 [1] is on record?
A: 800 nM

Q: Which inhibition at 1 µM (ATP 10 μM) does the source give for `CC(C)CCOC(=O)c1[nH]c2ccc(F)cc2c1-c1cn(CC2CCN(CCNS(=O)(=O)c3ccc(C(C)C)cc3)CC2)nn1` [AB664, Isopentyl 5-fluoro-3-(1-((1-(2-((4-isopropylphenyl)sulfonamido)ethyl)piperidin-4-yl)methyl)-1H-1,2,3-triazol-4-yl)-1H-indole-2-carboxylate] here?
A: 15%

Q: How did the IC50 turn out when `CC(C)COC(=O)c1[nH]c2ccc(F)cc2c1-c1cn(CC2CCN(CCNS(=O)(=O)c3ccc(-c4ccccc4N(C)C)cc3)CC2)nn1` [AB1209, isobutyl 3-(1-((1-(2-((2′-(dimethylamino)-[1,1′-biphenyl])-4-sulfonamido)ethyl)piperidin-4-yl)methyl)-1H-1,2,3-triazol-4-yl)-5-fluoro-1H-indole-2-carboxylate] was run?
A: 70 nM

Q: Which IC50 [1] does the source give for `CC(C)COC(=O)c1[nH]c2ccc(F)cc2c1-c1cn(CC2CCN(CCNS(=O)(=O)Cc3ccc(Br)cc3)CC2)nn1` [AB1030, isobutyl 3-(1-((1-(2-(((4-bromophenyl)methyl)sulfonamido)ethyl)piperidin-4-yl)methyl)-1H-1,2,3-triazol-4-yl)-5-fluoro-1H-indole-2-carboxylate] here?
A: 54 nM

Q: With `CC(C)COC(=O)c1[nH]c2ccc(F)cc2c1-c1cn(CC2CCN(S(=O)(=O)c3ccc4c(c3)OCC4)CC2)nn1` [AB939, isobutyl 3-(1-((1-((2,3-dihydrobenzofuran-6-yl)sulfonyl)piperidin-4-yl)methyl)-1H-1,2,3-triazol-4-yl)-5-fluoro-1H-indole-2-carboxylate] as the compound, how does the inhibition at 1 µM (ATP 10 μM) read?
A: 4%

Q: How did the IC50 turn out when `O=S(=O)(NCCN1CCC(Cn2cc(-c3c[nH]c4ccc(F)cc34)nn2)CC1)c1ccc(Cl)cc1` [AB153, 4-Chloro-N-(2-(4-((4-(5-fluoro-1H-indol-3-yl)-1H-1,2,3-triazol-1-yl)methyl)piperidin-1-yl)ethyl)benzenesulfonamide] was run?
A: 15100 nM

Q: With `CCCC(=O)c1[nH]c2ccc(F)cc2c1-c1cn(CC2CCN(CCNS(=O)(=O)c3ccc(-c4cccnc4Cl)cc3)CC2)nn1` [AB1233, N-(2-(4-((4-(2-butyryl-5-fluoro-1H-indol-3-yl)-1H-1,2,3-triazol-1-yl)methyl)piperidin-1-yl)ethyl)-4-(2-chloropyridin-3-yl)benzenesulfonamide] as the compound, how does the inhibition at 0.05 µM (compound at 0.05 μM, ATP 10 μM) read?
A: 17%

Q: Which IC50 does the source give for `CC(=O)c1[nH]c2ccc(F)cc2c1-c1cn(CC2CCN(CCNS(=O)(=O)c3ccc(-c4ccccc4O)cc3)CC2)nn1` [AB1450, N-(2-(4-((4-(2-acetyl-5-fluoro-1H-indol-3-yl)-1H-1,2,3-triazol-1-yl)methyl)piperidin-1-yl)ethyl)-2′-hydroxy-[1,1′-biphenyl]-4-sulfonamide] here?
A: 49 nM
